For experiment [1], the system named is Brown rust (Puccinia recondita). Put plainly: Test Example 4: foliar spray on wheat, Brown rust lesion area. As to conditions: single use, flowable, foliar spray one day before inoculation. Type of experiment: in vivo, Puccinia recondita on wheat (cultivar. Shirogane). How it is done: Five (5) parts of the present compound 1-3, 35 parts of a mixture of white carbon and ammonium polyoxyethylene alkyl ether sulfate (the weight ratio of 1:1) and […] of water were mixed, and the mixture was then finely-ground by a wet grinding method to obtain a flowable comprising the present compound 1-3. Separately, the flowable comprising the present compound 2 was prepared according to the above-mentioned similar method except that the […].
Each of the flowable comprising the present compound 1-3 and the flowable comprising the present compound 2 was diluted with water and if necessary, the resultant dilute solutions were mixed each other such that each concentration of the respective compounds in the dilution solution was adjusted to the concentration indicated in Table 4, to prepare the dilution solutions, respectively.
A plastic pot was filled with soil, and thereto wheat (cultivar. Shirogane) was seeded, and the plants were grown in a greenhouse for ten days. The above-mentioned dilution solutions were sprayed to foliar parts so as to adhere adequately onto the surfaces of leaves of the above wheats. After spraying the dilute solution, the plants were air-dried, and one day after the application, an aqueous suspension of uredospores of Brown rust (Puccinia recondita) was inoculated by spraying thereto. After the inoculation, the plants were placed at 27° C. under humid condition for one day, and were then cultivated under lighting for ten days, and a lesion area was examined (hereinafter referred to as “lesion area of treated group”).
Whereas, wheats were cultivated similarly to the treated group except that no foliage application of the above-mentioned agent solution was done, and Brown rust were inoculated, and the lesion area thereof was examined (hereinafter referred to as “lesion area of the untreated group”).
From each of the lesion area of the treated group and the untreated group, respectively, the efficacy of the treated group was calculated by the following Equation 2.
Efficacy (%)=[1−(lesion area of the treated group)/(lesion area of the untreated group)]×100 Equation 2

The subject of experiment [2] is Septoria leaf blotch (Mycosphaerella graminicola). Put plainly: Test Example 3: growth of Septoria leaf blotch in YBG medium, microtiter plate, absorbance at 550 nm. Type of experiment: cell-based. As to conditions: single use, 18° C., four days. On the procedure: Each of the present compound 1-3 or the present compound 2 was dissolved into dimethyl sulfoxide such that each concentration of these compounds was adjusted to one hundred fifty times as much as the concentration indicated in the below-mentioned Table 3. The resultant agent solution was dispensed into each microtiter plate (with 96 wells) in 1 μl portion thereof per well. 149 μl of YBG medium to which conidia of Septoria leaf blotch (Mycosphaerella graminicola) was inoculated in advance (which was prepared by dissolving 10 g of yeast extract, 10 g of Bacto Peptone, and 20 mL of glycerol into 1 L of water, followed by sterilizing the medium) was dispensed into each of the well to which the agent solution was dispensed. The plate was cultivated at 18° C. for four days, thereby allowing Septoria leaf blotch (Mycosphaerella graminicola) to undergo proliferation, and the absorbance at 550 nm of each well of the microtiter plate was then measured to examine a degree of growth of Septoria leaf blotch (hereinafter referred to as “treated group”).
Whereas, Septoria leaf blotch was proliferated similarly to the case of the treated group except that dimethyl sulfoxide was used instead of the agent solution, and the degree of the growth was examined (hereinafter referred to as “untreated group”). The efficacy was calculated from each of the obtained degree of growth of the treated group and the untreated group respectively by the following “Equation 1”.
Efficacy (%)=100×(X−Y)/X Equation 1
X: Degree of growth of fungus in the untreated group
Y: Degree of growth of fungus in the treated group

Take `Cc1cccc(-n2nnn(C)c2=O)c1COc1ccn(-c2ccc(Cl)cc2)n1` [Present compound 1-3, 1-(2-{[1-(4-chlorophenyl)-1H-pyrazol-3-yl]oxymethyl}-3-methylphenyl)-4-methyl-1,4-dihydrotetrazol-5-one]: the “Efficacy (%)” value is 35% in experiment [1] (concentration in agent solution 0.002 ppm), 70% in experiment [1] (concentration in agent solution 0.01 ppm), 20% in experiment [2] (concentration in medium 0.0001 ppm) and 37% in experiment [2] (concentration in medium 0.01 ppm).
As to `CC1CC(C)(C)c2c(F)ccc(NC(=O)c3cn(C)nc3C(F)F)c21` (stereo not shown) [Present compound 2], the “Efficacy (%)” value turned out to be 15% in experiment [1] (concentration in agent solution 0.001 ppm), 55% in experiment [1] (concentration in agent solution 0.02 ppm) and 20% in experiment [2] (concentration in medium 0.001 ppm).

The values above are taken from US10537102B2, “Synergistic fungicidal composition for controlling plant diseases” (Sumitomo Chemical Company, Limited, priority 2016, dated 2020).
